Assay [1] concerns lipoperoxide. As to the kind of experiment: Antioxidant properties, lipoperoxide study of Yagi. Type of assay: biochemical. The conditions noted are these: result in words. From the text:
(§1) The use of antioxidants in the treatment of atherosclerosis is also known to be of therapeutic value.

Assay [2] deals with low density lipoprotein oxidation. As to the kind of experiment: Antioxidant properties, low density lipoprotein oxidation studies (Parthasarathy et al.). Particulars: result in words. Type of assay: biochemical.
Source text: as §1

Assay [3] concerns plasma cholesterol. Nature of the assay: Plasma cholesterol in cholesterol-cholic acid fed rats. Type of assay: in vivo. The conditions noted are these: Rattus norvegicus, oral gavage; for ED50: fifty percent reduction of plasma cholesterol. Here is the method:
In addition, representative compounds were studied in vivo in cholesterol-cholic acid fed rats to determine the percent decrease of cholesterol in their plasma. This study involves rats which are, prior to testing, trained for one week to eat over a four hour time period each day. Upon initiation of the experiment, the rats diet is supplemented with 1.0 percent cholesterol and 0.25 percent cholic acid. The rats are dosed with the test compound by oral gavage just prior to adjust following the four hour feeding period. This is repeated for four days. On the fifth day, the rats are sacrificed and the total plasma cholesterol content is determined. The percent decrease in elevated plasma cholesterol levels is calculated in comparison with […].

Assay [4] relates to cholesterol absorption. As to the kind of experiment: 14C-cholesterol absorption in normal rats (oral gavage). It counts as in vivo. The conditions noted are these: Rattus norvegicus; for ED50: normal fed rats. Here is the method: Representative compounds were further tested in vivo to establish the percent inhibition of cholesterol absorption. In this study, normal rats were dosed (oral gavage) with ^14 C-cholesterol plus the test compound. Blood samples taken at six hours and/or intermittently up to twenty-four hours were analyzed and the percent inhibition of cholesterol absorption was calculated.

The subject of assay [5] is acyl-coenzyme A: cholesterol acyltransferase. Nature of the assay: Inhibition of ACAT / intracellular cholesterol esterification in vitro (procedure of Ross et al.). It counts as cell-based. Particulars: for % Inhibition: 25 μM; for IC50: read-out: IC50.
The mark [6] stands for this setting: 96 h, four days, read-out: % Decrease in Plasma Cholesterol.
The mark [7] stands for this setting: normal rats, read-out: % Inhibition of Absorption.

Where two headings read alike, the source gives them in different places.

The ED50 is the dose at which the effect has come halfway, by size or by number of responders. In general, % Inhibition refers to the percentage by which the read-out fell short of the control. A high value points to strong suppression. One may read the IC50 as the concentration that inhibits the measured activity by half.

`CCCCCCN(Cc1ccc(CC(C)(C)C)cc1)C(Nc1cc(C(C)(C)C)c(O)c(C(C)(C)C)c1)=C1C(=O)OC(C)(C)OC1=O` [Compound 79, 5-[[[3,5-Bis(1,1-dimethylethyl)-4-hydroxyphenyl]amino][[[4-(2,2-dimethylpropyl)phenyl]methyl]hexylamino]methylene]-2,2-dimethyl-1,3-dioxane-4,6-dione]: the “antioxidant properties in the lipoperoxide study” value in assay [1] is listed as “demonstrated antioxidant properties”. The “antioxidant properties in low density lipoprotein oxidation studies” value in assay [2] is listed as “demonstrated antioxidant properties”.
`CCCCCCCN(Cc1ccc(CC(C)(C)C)cc1)C(Nc1ccc(OC)cc1OC)=C1C(=O)OC(C)(C)OC1=O` [Compound 48, 5-[[(2,4-Dimethoxyphenyl)amino][[[4-(2,2-dimethylpropyl)phenyl]methyl]heptylamino]-methylene]-2,2-dimethyl-1,3-dioxane-4,6-dione]: in assay [3] (setting [6]), the change in vivo at 100 mg/kg is -60%. For the same compound, the values for the 50% effective dose (ED50) in assay [3] and in assay [4] were 25 mg/kg and 11 mg/kg, respectively. Besides, the change in vivo at 200 mg/kg in assay [4] (normal rats, 200 mg/kg, read-out: % Inhibition of Absorption) was -84%. Besides, in assay [5], the “% Inhibition” value amounted to 94%. Also, the IC50 in assay [5] amounted to 2900 nM.
As for `CCCCCc1ccc(CN(C(Nc2ccc(OC)cc2OC)=C2C(=O)OC(C)(C)OC2=O)C(C)CCCCC)cc1` (centres unmarked) [Compound 40], the change in vivo at 40 mg/kg in assay [3] (setting [6]) was -78%. The ED50 in assay [3] is 7 mg/kg; in assay [4] it was 2 mg/kg. The change in vivo at 10 mg/kg in assay [4] (setting [7]) is -69%. In addition, the “% Inhibition” value in assay [5] is on record as 99%. In assay [5], the IC50 was 360 nM.
For `CCCCCC(C)N(Cc1ccc(CC(C)C)cc1)C(Nc1ccc(N(C)C)cc1C)=C1C(=O)OC(C)(C)OC1=O` (centres unmarked) [Compound 46], in assay [3] (96 h, four days, 20 mg/kg, read-out: % Decrease in Plasma Cholesterol), the change in vivo at 20 mg/kg was -70%. For the same compound, in assay [3], it took a dose of 8 mg/kg to reach the 50% effect level (ED50). This compound returned an ED50 in assay [4] of 2 mg/kg. In assay [4] (setting [7]), the change in vivo at 10 mg/kg was -82%. In assay [5], the “% Inhibition” value was determined as 98% and the concentration for half-maximal inhibition (IC50) came to 350 nM.
For the compound `CCCCCCCN(Cc1ccc(CC(C)(C)C)cc1)C(Nc1cc(C(C)(C)C)c(O)c(C(C)(C)C)c1)=C1C(=O)OC(C)(C)OC1=O` [Compound 76, 5-[[[3,5-Bis(1,1-dimethylethyl)-4,1-hydrophenyl]amino][[[4-(2,2-dimethylpropyl)phenyl]methyl]heptylamino]methylene]-2,2-dimethyl-1,3-dioxane-4,6-dione], the “antioxidant properties in the lipoperoxide study” value in assay [1] is recorded as “demonstrated antioxidant properties”. Also, in assay [5], the “% Inhibition” value came to 96% and the IC50 is 60 nM. Also, the “antioxidant properties in low density lipoprotein oxidation studies” value in assay [2] is “demonstrated antioxidant properties”.
As for `CCCCCCOc1ccc(NC(=C2C(=O)OC(C)(C)OC2=O)N(Cc2ccc(CC(C)C)cc2)C(C)CCCCC)cc1` (centres unmarked) [Compound 43, 5-[[[4-(Hexyloxy)phenyl]amino][(1-methylhexyl)[[4-(2methylpropyl)phenyl]methyl]amino]-methylene]-2,2-dimethyl-1,3-dioxane-4,6,-dione], the change in vivo at 40 mg/kg in assay [3] (setting [6]) was -67%. Besides, in assay [4] (setting [7]), the change in vivo at 10 mg/kg is -52%. Besides, in assay [5], the “% Inhibition” value amounted to 97% and the half-inhibitory concentration (IC50) was 410 nM.
For `CCCCCC(C)N(Cc1ccc(CC(C)(C)C)cc1)C(Nc1cc(C(C)(C)C)c(O)c(C(C)(C)C)c1)=C1C(=O)OC(C)(C)OC1=O` (centres unmarked) [Compound 75], in assay [1], the “antioxidant properties in the lipoperoxide study” value is “demonstrated antioxidant properties”. In assay [2], the “antioxidant properties in low density lipoprotein oxidation studies” value was “demonstrated antioxidant properties”.
Take `CCCCCCN(Cc1ccc(CC(C)C)cc1)C(Nc1cc(C(C)(C)C)c(O)c(C(C)(C)C)c1)=C1C(=O)OC(C)(C)OC1=O` [Compound 77]: in assay [1], the “antioxidant properties in the lipoperoxide study” value is “demonstrated antioxidant properties”. Also, the “% Inhibition” value in assay [5] was 95%. Also, in assay [2], the “antioxidant properties in low density lipoprotein oxidation studies” value is on record as “demonstrated antioxidant properties”.
On to `CCCCCC(C)N(Cc1ccc(CC(C)(C)C)cc1)C(Nc1ccc(OC)cc1OC)=C1C(=O)OC(C)(C)OC1=O` (centres unmarked) [Compound 7, 5-[[(2,4-Dimethoxyphenyl)amino][[[4-(2,2-dimethylpropyl)phenyl]methyl](1-methylhexyl)amino]methylene]-2,2-dimethyl-1,3-dioxane-4,6-dione], for which the change in vivo at 100 mg/kg in assay [3] (96 h, heading: % Decrease in Plasma Cholesterol, four days) is -100%. This compound also registered a 50% effective dose (ED50) in assay [3] of 6 mg/kg. The same compound yielded an ED50 in assay [4] of 3 mg/kg. In addition, in assay [5], the “% Inhibition” value was found to be 99% and the IC50 was found to be 830 nM.

These data come from patent US5399697A, “N,N',N'-trisubstituted-5-bisaminomethylene-1,3-dioxane-4,6-dione inhibitors of acyl-CoA:cholesterol-acyl transferase” (American Home Products Corporation, priority 1993, dated 1995).
